From US20220274938A1, “5-[(1S)-1-(4-BROMOPHENOXY)ETHYL]-2H-TETRAZOLE DERIVATIVES AND RELATED COMPOUNDS AS CLC-1 ION CHANNEL INHIBITORS FOR TREATING NEUROMUSCULAR DISORDERS” (NMD PHARMA A/S, priority 2019, published 2022)

Test system: female Lewis rats
Assay: In situ muscle contractile characteristics (isometric hindlimb force) under Cisatracurium infusion
Type: in vivo, rat
Conditions: 21.6 mg/kg i.v.; 80 Hz stimulation; neuromuscular transmission partially inhibited by Cisatracurium
Protocol: Isometric hindlimb force was measured in 12-week old female Lewis rats in the presence and absence of compound.
Rats were placed under anesthesia with isoflurane (2-4%), intubated and subsequently connected to a micro ventilator (Microvent 1, Hallowell EMC, US). Two stimulation electrodes were inserted through the skin to stimulate the sciatic nerve. A small incision was made proximal to the ankle, to expose the Achilles tendon, which was tied by cotton string, and connected to a force transducer (Fort250, World Precision Instruments) with adjustable position (Vernier control). The Achilles tendon was then cut distal to the attached cotton string. […]
Muscle contractile properties were assessed by applying an electrical current (under supramaximal voltage conditions) to the nerve and recording the force generated by the muscle. The muscle was stretched until maximal force was obtained, when assessed by 2 Hz stimulation. Isometric force was measured every 30 seconds at 12 Hz (Twitch), 10 pulses, and at every 5 minutes at 80 Hz (Tetanic) for 1 second (80 pulses). […] The effect of test article was assessed on its ability to increase force generated from the stimulation pattern applied. The effect was assessed in the ability to increase force per se (tetanic, 80 Hz, stimulation), and the ratio between individual twitch peaks (12 Hz stimulation). […]

In the case of C[C@H](Oc1ccc(Br)cc1F)c1nn[nH]n1 [Compound E-8, 5-[(1S)-1-(4-bromo-2-fluorophenoxy)ethyl]-2H-1,2,3,4-tetrazole], the “increase in tetanic force” value is reported as 11%.
